Data as given in US20200002283A1, “PYRAZOLE DERIVATIVES HAVING ACTIVITY AGAINST PAIN” (priority 2016, published 2020).
Where two headings read alike, the source gives them in different places.

Assays:
[1] = target: Human α2δ-1 subunit of Cav2.2 calcium channel (Homo sapiens, UniProt P54289); assay: Human α2δ-1 subunit of Cav2.2 calcium channel assay ([3H]-Gabapentin binding)
Protocol: Human α2δ-1 Subunit of Cav2.2 Calcium Channel Assay
Human α2δ-1 enriched membranes (2.5 μg) were incubated with 15 nM of radiolabeled [3H]-Gabapentin in assay buffer containing Hepes-KOH 10 mM, pH 7.4. NSB (non specific binding) was measured by adding 10 μM pregabalin. After 60 min incubation at 27° C., binding reaction was terminated by filtering through Multiscreen GF/C (Millipore) presoaked in 0.5% polyethyleneimine in Vacuum Manifold Station, followed by 3 washes with ice-cold filtration buffer containing 50 mM Tris-HCl, pH 7.4. Filter plates were dried at 60° C. for 1 hour and 30 μl of scintillation cocktail were added to each well before radioactivity reading. Readings were performed in a Trilux 1450 Microbeta radioactive counter (Perkin Elmer).

human μ-opioid receptor = target: T1, human μ-opioid receptor (Homo sapiens, UniProt P35372); assay: Human μ-opioid receptor radioligand assay ([3H]-DAMGO); format: binding
T1 construct: expressed in transfected cells; host or cells: CHO-K1
Protocol: Human μ-Opioid Receptor Radioligand Assay
To investigate binding properties of test compounds to human μ-opioid receptor, transfected CHO-K1 cell membranes and [^3H]-DAMGO (Perkin Elmer, ES-542-C), as the radioligand, were used. The assay was carried out with 20 μg of membrane suspension, 1 nM of [^3H]-DAMGO in either absence or presence of either buffer or 10 μM Naloxone for total and non-specific binding, respectively. Binding buffer contained Tris-HCl 50 mM, MgCl2 5 mM at pH 7.4. Plates were incubated at 27° C. for 60 minutes. After the incubation period, the reaction mix was then transferred to MultiScreen HTS, FC plates (Millipore), filtered and plates were washed 3 times with ice-cold 10 mM Tris-HCL (pH 7.4). Filters were dried and counted at approximately 40% efficiency in a MicroBeta scintillation counter (Perkin-Elmer) using EcoScint liquid scintillation cocktail.

[2] = human α2δ-1 enriched membranes, 15 nM [3H]-Gabapentin, read-out: α2δ-1 binding
[3] = transfected CHO-K1 cell membranes, 1 nM [3H]-DAMGO, read-out: μ binding

Human α2δ-1 subunit of Cav2.2 calcium channel, sequence (P54289 25-1103): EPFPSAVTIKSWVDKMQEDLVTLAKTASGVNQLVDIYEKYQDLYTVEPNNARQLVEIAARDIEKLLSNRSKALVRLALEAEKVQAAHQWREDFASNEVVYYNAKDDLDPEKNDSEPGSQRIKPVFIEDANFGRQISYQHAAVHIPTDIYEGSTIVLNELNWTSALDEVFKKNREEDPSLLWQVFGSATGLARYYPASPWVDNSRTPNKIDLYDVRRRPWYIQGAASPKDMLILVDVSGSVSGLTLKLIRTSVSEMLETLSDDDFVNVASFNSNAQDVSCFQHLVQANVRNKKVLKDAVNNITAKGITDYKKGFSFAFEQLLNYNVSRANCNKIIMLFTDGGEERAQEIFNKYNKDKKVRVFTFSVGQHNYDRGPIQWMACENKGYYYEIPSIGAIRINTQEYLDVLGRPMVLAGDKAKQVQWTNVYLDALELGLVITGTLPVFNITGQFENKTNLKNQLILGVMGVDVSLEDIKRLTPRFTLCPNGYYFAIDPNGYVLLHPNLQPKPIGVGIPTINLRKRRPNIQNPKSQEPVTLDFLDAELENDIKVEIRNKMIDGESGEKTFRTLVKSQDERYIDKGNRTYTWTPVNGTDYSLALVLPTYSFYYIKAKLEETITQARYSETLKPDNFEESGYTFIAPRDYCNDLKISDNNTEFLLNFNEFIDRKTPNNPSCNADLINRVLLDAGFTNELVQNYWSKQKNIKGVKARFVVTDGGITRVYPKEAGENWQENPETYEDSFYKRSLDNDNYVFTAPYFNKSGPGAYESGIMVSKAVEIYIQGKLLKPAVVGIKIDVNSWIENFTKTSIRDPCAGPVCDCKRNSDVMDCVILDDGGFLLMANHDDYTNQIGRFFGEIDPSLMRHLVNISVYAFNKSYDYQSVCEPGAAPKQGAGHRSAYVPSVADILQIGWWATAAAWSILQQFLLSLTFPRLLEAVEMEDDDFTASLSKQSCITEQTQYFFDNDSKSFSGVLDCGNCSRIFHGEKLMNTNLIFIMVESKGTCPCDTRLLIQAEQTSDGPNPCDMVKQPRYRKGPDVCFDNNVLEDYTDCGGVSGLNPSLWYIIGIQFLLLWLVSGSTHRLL
T1 sequence (P35372 whole entry): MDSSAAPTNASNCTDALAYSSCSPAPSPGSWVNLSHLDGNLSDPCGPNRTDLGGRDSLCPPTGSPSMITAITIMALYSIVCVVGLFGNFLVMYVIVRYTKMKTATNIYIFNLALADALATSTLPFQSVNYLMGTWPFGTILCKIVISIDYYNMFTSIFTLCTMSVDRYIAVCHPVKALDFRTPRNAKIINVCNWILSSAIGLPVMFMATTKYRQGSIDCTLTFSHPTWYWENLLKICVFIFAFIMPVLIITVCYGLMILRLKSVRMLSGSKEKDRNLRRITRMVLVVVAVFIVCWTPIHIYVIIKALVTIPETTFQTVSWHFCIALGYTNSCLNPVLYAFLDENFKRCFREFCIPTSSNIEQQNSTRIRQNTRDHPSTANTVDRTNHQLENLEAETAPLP

Ki [1, 2] [nM] | Ki (human μ-opioid receptor; [3]) [nM] | SMILES | Ki [1] [nM] | Ki (human μ-opioid receptor) [nM]
500 to 3000 | > 500 | NCc1cc(Cc2ccc(Nc3nccs3)cc2)n(-c2ccc(Cl)cc2Cl)n1 [Example 74, N-(4-{[3-(Aminomethyl)-1-(2,4-dichlorophenyl)-1H-pyrazol-5-yl]methyl}phenyl)thiazol-2-amine] |  | 
500 to 3000 | > 500 | CC(N)c1cc(Cc2ccc(OCCO)cc2)n(-c2ccc(Cl)cc2Cl)n1 (centres unmarked) [Example 75, 2-(4-{[3-(1-Aminoethyl)-1-(2,4-dichlorophenyl)-1H-pyrazol-5-yl]methyl}phenoxy)ethan-1-ol] |  | 
 |  | NC(CC(=O)O)c1cc(Cc2ccc(O)cc2)n(-c2ccc(Cl)cc2Cl)n1 (centres unmarked) [Example 76, 3-Amino-3-[1-(2,4-dichlorophenyl)-5-(4-hydroxybenzyl)-1H-pyrazol-3-yl]propanoic acid] | > 5000 | 100 to 500
 |  | NC(=O)CC(N)c1cc(Cc2ccc(O)cc2)n(-c2ccc(Cl)cc2Cl)n1 (centres unmarked) [Example 77, 3-Amino-3-[1-(2,4-dichlorophenyl)-5-(4-hydroxybenzyl)-1H-pyrazol-3-yl]propanamide] | > 5000 | < 100
